This is an account of results in publication PMC5531637, “The effect of mangiferin on skin: Penetration, permeation and inhibition of ECM enzymes” (PLoS ONE, 2017).

For one series, the system named is mice. To be noted: 2 g/kg; cited from earlier work.
The format of series [1] is in vitro ADME. To be noted: human, 25 μg/ml. As for the experimental part: The studies were performed using human cadaver full skin (thickness of 0.75 mm) obtained from the region of the thorax of 40–60 years old donors. The study was reviewed and approved by the Independent Bioethics Commission for Research of the Medical University of Gdansk (number NKBBN/120-41/2014). Before the experiment, the skin was stored frozen at -20 °C. The preparations were applied as an infinite dose (0.5 ml mangiferin solution at concentration of 25 μg/ml) on the surface of the skin placed in the flow-through Teflon® diffusion chamber (Crown Glass, USA), and left for 24 h. The diffusion area of the skin was 0.65 cm^2. The donor compartment of the chamber remained occluded, and the system was maintained at the temperature 37°C ± 0.5°C. Saline solution, 20 ml, preserved with 0.005% sodium azide (Fluka, Buchs, Switzerland) was recirculated beneath the skin with a constant rate of 10 ml/h. Acceptor fluid ensured the sink condition. After the penetrants were removed from the skin, the stratum corneum was separated by tape-stripping method, using 30 fragments of an adhesive tape (3M Medica Pharma, St. Paul, MN, USA). The following parameters were employed: pressure about 1 kg/cm^2 (applied by stamp), 2 s duration of pressure, and a rapid removal rate at an angle of 45^o. The skin layers were isolated by the heat separation technique. […]

On the set-up of series [2]: method as in ref 21 = [21]; 21 Nuñez-Selles AJ . Antioxidant therapy: myth or reality? J Braz Chem Soc . 2005; 16 : 699 – 710 . To be noted: cited from earlier work.
In series [3] the target is Collagenase from Clostridium histolyticum. As to the kind of experiment: Spectrophotometric collagenase assay with FALGPA as substrate. The class given is biochemical. As for the experimental part: A spectrophotometric collagenase assay was performed as previously described, with N-[3- (2-Furyl) acryloyl]- Leu- Gly- Pro-Ala (FALGPA) as the substrate. […] The reaction mixtures were preincubated with mangiferin solutions for 15 minutes at room temperature. The addition of FALGPA started the reaction. Changes in product formation were recorded every 20 seconds for 20 minutes in the absorbance λ = 335 nm with the use of the Epoch (BioTek System) spectrophotometer in 96-well plates (BIOCOM SYSTEMS). Oleanolic acid was used as a control. The kinetic parameters Vo, Km and Vmax were calculated according to Michaelis-Menten and Lineweaver-Burk plots and analyzed in the GraphPad prism program and Excel.
As stated by the data supplier: 1U of collagenase hydrolyses […] FALGPA/min at pH 7.5 and 25°C, in the presence of calcium ions.

Details of series [4]: method as in ref 18 = [18]; 18 Acosta J , Sevilla I , Salomón S , Nuevas L , Romero A , Amaro D . Determination of mangiferin solubility in solvents used in the biopharmaceutical industry . Pharm Pharmacogn Res . 2016; 4 ( 2 ):
To be noted: cited from earlier work.

In a further series the test system is rats. To be noted: 2 g/kg; cited from earlier work.
For series [5], the system named is human acute myeloid leukemia cell line HL-60. On the set-up: method as in PMID 21547680. To be noted: cited from earlier work.
Series [6] deals with porcine pancreatic elastase (Sus scrofa, UniProt P00772). As to the kind of experiment: Spectrophotometric elastase assay with SANA as substrate. The class given is biochemical.
Sequence of porcine pancreatic elastase (P00772 27-266): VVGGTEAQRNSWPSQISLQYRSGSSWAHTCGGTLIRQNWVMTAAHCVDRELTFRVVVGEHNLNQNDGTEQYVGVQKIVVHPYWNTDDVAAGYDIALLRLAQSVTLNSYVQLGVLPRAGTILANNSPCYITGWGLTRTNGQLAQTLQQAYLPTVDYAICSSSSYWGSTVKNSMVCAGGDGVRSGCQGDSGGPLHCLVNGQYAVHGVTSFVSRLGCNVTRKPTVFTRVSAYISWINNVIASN
Method: A spectrophotometric elastase assay was performed as previously described [25], with N-Succ-(-Ala)3-p-nitroanilide (SANA) as the substrate. […] The addition of SANA started the reaction. Changes in product formation: p-nitroaniline was recorded every 20 seconds for 20 minutes in the absorbance λ = 410 nm with the use of the Epoch (BioTek System) spectrophotometer in 96-well plates (BIOCOM SYSTEMS). The oleanolic acid was used as a control [26]. Kinetic parameters Vo, Km and Vmax were calculated according to Michaelis-Menten and Lineweaver-Burk plots and analyzed in the GraphPad prism program and Excel.
As stated by the data supplier: 1U elastase hydrolyses 1 μM SANA/min at pH 8 and 25°C. The molar absorption coefficient of p-nitroaniline is 9800 M^–1 cm^–1.
Series [7] relates to human cervix adenocarcinoma cell line (HeLa). On the set-up: method as in PMID 24633329. To be noted: cited from earlier work.

A word on the log P: it is the decadic logarithm of the partition coefficient of the neutral form, usually between octanol and water. As to `O=c1c2cc(O)c(O)cc2oc2cc(O)c([C@@H]3O[C@H](CO)[C@@H](O)[C@H](O)[C@H]3O)c(O)c12` [mangiferin, 2-C-β-D-glucopyranosyl-1,3,6,7-tetrahydroxyxanthone], the dermal acute toxicity entry in the series with mice and in the series with rats was “did not show toxic effects” each time. For the same compound, the “amount permeated through the skin from ethanol solution relative to water solution” value in [1] was “about 2 fold”. In series [1], the “concentration in the acceptor fluid after 24 hours relative to after 2 hours” value is listed as “about 2 fold”. Further, the “log P” value in series [2] is given as 2.73. Also, the IC50 in series [3] (FALGPA 0.8 mM, pH 7.5, 15 min preincubation, read-out: concentration leading to a 50% loss of collagenase activity (IC50)) is 254 ± 7.56 µM; in [6] (SANA 0.8 mM, pH 8, 15 min preincubation, read-out: concentration leading to a 50% loss of elastase activity (IC50)), 140 ± 9.34 µM. In addition, the “concentrations that inactivated collagenase almost completely” value in series [3] (FALGPA substrate) was “above 500 μM”. In addition, the “type of collagenase inhibition” value in series [3] (Lineweaver-Burk plots) is “noncompetitive”. Also, in series [3] (activity vs enzyme concentration plots), the “reversibility of collagenase inhibition” value is given as “reversible”. Also, the “potency on collagenase relative to oleanolic acid (fold lower)” value in [3] (vs reference oleanolic acid) was 4.9 fold. The solubility in ethanol entry in [4] (ethanol) was “slightly soluble”. Further, the “solubility in nonpolar solvents” value in series [4] (some nonpolar solvents (e.g. n-hexane, diethyl ether)) is given as “practically insoluble”. For the same compound, the solubility in water result in series [4] (water) is reported as “sparingly soluble”. The “apoptosis in HL-60 cells” value in series [5] is given as “induce apoptosis”. In addition, the “type of elastase inhibition” value in series [6] (Lineweaver-Burk plots, 0, 59, 118 and 177 μM) is “noncompetitive”. For the same compound, the “concentrations that inactivated elastase almost completely” value in series [6] (SANA substrate) is recorded as “above 473 μM”. The “reversibility of elastase inhibition” value in [6] (activity vs enzyme concentration plots, 0, 59, 118 and 177 μM) was “reversible”. In series [6] (vs reference oleanolic acid), the “potency on elastase relative to oleanolic acid (fold lower)” value was 4.2 fold. Moreover, the “effect on apoptotic effects of hesperidin in HeLa cells” value in series [7] is reported as “enhanced apoptotic effects of hesperidin”.
